# Where “and” joins values, the source holds several entries; their conditions need not be identical. Equal values may be shown once. Read-outs that look alike come from different tables or passages of the source.
# Columns and labels:
# Gladioli bulb [1] = tested on: Gladioli bulb
# Description: Each vessel was filled with approximately 800 cm^3 of Pro-Mix® Potting Soil (see FIGS. 20 and 21).
# (§1) Each vessel contained one Gladioli bulb placed at a depth of 10 cm below soil surface. Each vessel was then watered with 100 ml spring water and positioned on its own drainage tray on a shelf approximately 60 cm below two 33 watt grow light tubes (no sunlight) equipped with a timer set for 16 hours light on, 6 hours light off.
# [2] = tested on: sunflower (Sun Gold-Golden Yellow Double) seed; conditions: for Seedling Height / germination: sterilized Caribbean Beach Sand
# Description: Four vessels were filled with approximately 800 cm^3 of Paver Construction Sand (non-sterile) and two vessels contained sterilized Caribbean beach sand (see FIG. 23).
# as §1, with “one sunflower (Sun Gold-Golden Yellow Double) seed” for “one Gladioli bulb”, “of 5.0” for “of 10”
# [3] = tested on: sweet corn, variety Sugar Dots; conditions: for Seedling Height: two seedlings
# Description: (§2) The tubing intersected the vessel through the diameter at a height of 3.5 cm above the base. […] Each vessel was filled with approximately 902 cm^3 of Iowa Crop Soil (soil depth =9.5 cm) that had been collected from an Iowa commercial cornfield. The soil in each vessel was tested for pH using a Chemetrics pH meter dipped in a mixture of 40 ml distilled water and 100 grams of soil.
# (§3) Each vessel was seeded with two seeds of sweet corn, variety Sugar Dots, (using the seed positions shown in FIG. 9) placed at a depth of 2.54 cm below soil surface. Each vessel was then watered with 100 ml spring water and positioned on its own drainage tray on a shelf approximately 10 cm below three 33 watt grow light tubes (no sunlight) equipped with a timer set for 16 hours light on, 6 hours light off. White reflective covering was placed on the wall immediately behind the samples, with an aluminum foil hood extending over the light fixture to reflect light downward onto the vessels.
# Gladioli bulb [4] = conditions: liquid butane injected into the rhizosphere, halted Day 19
# Description: Each vessel was filled with approximately 800 cm^3 of Pro-Mix® Potting Soil 214.
# as §1, with “bulb 216” for “bulb”, “surface. FIG. 21 is a photograph showing the bulbs and vessels.” for “surface.”
# [5] = tested on: sweet corn, variety Sugar Dots; conditions: for Seedling Height: two seedlings; remark: listed apart in the source
# Description: as §2, with “1.5” for “3.5”, “523” for “902”, “=5.5” for “=9.5”
# as §3, with “placed (illustrated” for “(using the seed positions shown”, “9)” for “9) placed”, “two” for “three”
# [6] = Table 7 Day No. 6 (final day), Butane Bulb 1 and 2
smiles,measurement,setting,value
"CCCC [Butane, n-butane]","Seedling Height, secondary shoot","Gladioli bulb [1]; Table 7 Day No. 1, Butane Bulb 2",Secondary shoot 3.0 cm
same,"Seedling Height, main shoot",Gladioli bulb [1]; [6],27.0 cm and 29.0 cm
same,"Seedling Height, secondary shoot",Gladioli bulb [1]; [6],14.0 cm and 23.0 cm
same,root development compared with control plant,"Gladioli bulb [1]; butane enrichment for 17 days, bulbs unearthed",greater
same,bulb shoot bifurcation,"Gladioli bulb [1]; butane gas injection, shoots directly from the bulb sphere",conditioned to grow two plants
same,root development compared with control plant,"[2]; Day 23, Paver Sand, unearthed",thicker and more robust
same,Seedling Height,"[2]; Day No. 23, Paver Sand (non-sterile), two plants",20.0 cm
same,Seedling Height / germination,[2]; Day No. 23,no seed growth or
same,Seedling Height / germination,"[2]; Day No. 23, listed as butane",No seed growth or germination
same,average height taller than the control corn plant,[3]; Day 16,55%
same,average growth in height,"[3]; Day 16, average of two plants",23.3 cm
same,Seedling Height,[3]; Day No. 5,0.5 cm and 1.0 cm
same,Seedling Height,[3]; Day No. 6,"3.0 cm, 3.0 cm"
same,Seedling Height,[3]; Day No. 7,"4.0 cm, 4.0 cm"
same,Seedling Height,[3]; Day No. 8,6.0 cm and 5.7 cm
same,Seedling Height,[3]; Day No. 9,8.0 cm and 7.2 cm
same,Seedling Height,[3]; Day No. 10,11.0 cm and 9.1 cm
same,Seedling Height,[3]; Day No. 11,16.0 cm and 12 cm
same,Seedling Height,[3]; Day No. 12,18.0 cm and 15.5 cm
same,Seedling Height,[3]; Day No. 13,19.0 cm and 16.7 cm
same,Seedling Height,[3]; Day No. 14,20.1 cm and 17.3 cm
same,Seedling Height,[3]; Day No. 15,22.0 cm and 18.0 cm
same,Seedling Height,[3]; Day No. 16,27.0 cm and 19.6 cm
same,time of sprouting compared with control plant,[3]; in vivo,three days earlier
same,stem thickness,"[3]; last day of growth (Day 16), taller plant, shorter plant",0.5 cm and 0.3 cm
same,average growth rate,"[3]; over the sixteen-day period, average of two plants",1.45 cm per day
same,root branch length,[3]; seen through clear vessels,up to 3 cm
same,faster growth rate than the control plant,[3]; sixteen-day period,54%
same,seed sprouting,[3]; two seeds planted,sprouted into seedlings
same,effect of liquid butane injection on growing plants,Gladioli bulb [4]; listed as Liquid butane,into the rhizosphere killed the
same,effect of liquid butane injection on growing plants,Gladioli bulb [4]; listed as liquid butane,killed
same,Seedling Height,"[5]; Day No. 6, n-butane injected into root zone",0.5 cm and 0.8 cm
same,Seedling Height,[5]; Day No. 7,4.0 cm and 4.5 cm
same,Seedling Height,[5]; Day No. 8,7.0 cm and 6.0 cm
same,Seedling Height,[5]; Day No. 9 (final day),11.0 cm and 6.8 cm
same,Seedling Height,"[5]; Day No. 9 (final day), listed as butane",11 cm and 6.8 cm
same,root spread compared with control plants,[5]; seen through clear vessels,greater and more complex degree horizontally

# — patent publication US20050000154A1, “Apparatus and methods for enhanced plant and lawn growth using alkane injection” (Global BioSciences, Inc., priority 2001, published 2005)
